In patent US6683181B2, “Pyrroloquinolones as antiviral agents” (Pharmacia and Upjohn Comapny, priority 2000, dated 2004) one finds IC50 and melting point data, which are given here for 21 compounds.

In one data set the target is T1, CMV Polymerase (Human cytomegalovirus, UniProt P08546).
T1 construct: made in house; host or cells: recombinant baculovirus-infected SF-9 cells
In words: HCMV polymerase scintillation proximity assay (modified version). It counts as biochemical. The settings on record: modified SPA assay; compounds diluted in 100% DMSO; 4.5 mM DTT. As for the experimental part:
(§1) The HCMV polymerase assay is performed using a scintillation proximity assay (SPA) as described in several references, such as N. D. Cook, et al., Pharmaceutical Manufacturing International, pages 49-53 (1992); K. Takeuchi, Laboratory Practice, September issue (1992); U.S. Pat. No. 4,568,649 (1986); which are incorporated by reference herein. Reactions are performed in 96-well plates. The assay is conducted in 100 μl volume with 5.4 mM HEPES (pH 7.5), 11.7 mM KCl, 4.5 mM MgCl2, 0.36 mg/ml BSA, and 90 nM ^3H-dTTP. Assays are run with and without CHAPS, (3-[(3-Cholamidopropyl)-dimethylammonio]-1-propane-sulfonate) at a final concentration of 2 mM. HCMV polymerase is diluted in enzyme dilution buffer containing 50% glycerol, 250 mM NaCl, 10 mM HEPES (pH 7.5), 100 μg/ml BSA, and 0.01% sodium azide. The HCMV polymerase, which is expressed in recombinant baculovirus-infected SF-9 cells and purified according to literature procedures, is added at 10% (or 10 μl) of the final reaction volume, i.e., 100 μl. Compounds are diluted in 50% DMSO and 10 μl are added to each well. Control wells contain an equivalent concentration of DMSO. Unless noted otherwise, reactions are initiated via the addition of 6 nM biotinylated poly(dA)-oligo(dT) template/primer to reaction mixtures containing the enzyme, substrate, and compounds of interest. Plates are incubated in a 25° C. or 37° C. H2O bath and terminated via the addition of 40 μl/reaction of 0.5 M EDTA (pH 8) per well. Reactions are terminated within the time-frame during which substrate incorporation is linear and varied depending upon the enzyme and conditions used, i.e., 30 min. for HCMV polymerase. Ten μl of streptavidin-SPA beads (20 mg/ml in PBS/10% glycerol) are added following termination of the reaction. Plates are incubated 10 min. at 37° C., then equilibrated to room temperature, and counted on a Packard Topcount. Linear regressions are performed and IC50's are calculated using computer software.
A modified version of the above HCMV polymerase assay is performed as described above, but with the following changes: Compounds are diluted in 100% DMSO until final dilution into assay buffer. In the previous assay, compounds are diluted in 50% DMSO. 4.5 mM dithiotherotol (DTT) is added to the polymerase buffer.
(In a scintillation proximity assay essentially only radioactivity close to the scintillant gives light.)

A further data set concerns the target HSV Polymerase (Human herpesvirus 1, UniProt P04293). Nature of the data set: HSV polymerase assay. The format is biochemical. As for the experimental part: [Worded in the source for another target; used here, by the source, with some conditions changed.] as §1, with “software. […]” for “software.”
Another data set deals with VZV Polymerase (Varicella-zoster virus, UniProt P09252). In words: VZV polymerase assay. It counts as biochemical. The procedure:
[Worded in the source for another target; used here, by the source, with some conditions changed.] as §1, with “software. […]” for “software.”

Molecules are shown by their SMILES.

Chain of HSV Polymerase (P04293 whole entry): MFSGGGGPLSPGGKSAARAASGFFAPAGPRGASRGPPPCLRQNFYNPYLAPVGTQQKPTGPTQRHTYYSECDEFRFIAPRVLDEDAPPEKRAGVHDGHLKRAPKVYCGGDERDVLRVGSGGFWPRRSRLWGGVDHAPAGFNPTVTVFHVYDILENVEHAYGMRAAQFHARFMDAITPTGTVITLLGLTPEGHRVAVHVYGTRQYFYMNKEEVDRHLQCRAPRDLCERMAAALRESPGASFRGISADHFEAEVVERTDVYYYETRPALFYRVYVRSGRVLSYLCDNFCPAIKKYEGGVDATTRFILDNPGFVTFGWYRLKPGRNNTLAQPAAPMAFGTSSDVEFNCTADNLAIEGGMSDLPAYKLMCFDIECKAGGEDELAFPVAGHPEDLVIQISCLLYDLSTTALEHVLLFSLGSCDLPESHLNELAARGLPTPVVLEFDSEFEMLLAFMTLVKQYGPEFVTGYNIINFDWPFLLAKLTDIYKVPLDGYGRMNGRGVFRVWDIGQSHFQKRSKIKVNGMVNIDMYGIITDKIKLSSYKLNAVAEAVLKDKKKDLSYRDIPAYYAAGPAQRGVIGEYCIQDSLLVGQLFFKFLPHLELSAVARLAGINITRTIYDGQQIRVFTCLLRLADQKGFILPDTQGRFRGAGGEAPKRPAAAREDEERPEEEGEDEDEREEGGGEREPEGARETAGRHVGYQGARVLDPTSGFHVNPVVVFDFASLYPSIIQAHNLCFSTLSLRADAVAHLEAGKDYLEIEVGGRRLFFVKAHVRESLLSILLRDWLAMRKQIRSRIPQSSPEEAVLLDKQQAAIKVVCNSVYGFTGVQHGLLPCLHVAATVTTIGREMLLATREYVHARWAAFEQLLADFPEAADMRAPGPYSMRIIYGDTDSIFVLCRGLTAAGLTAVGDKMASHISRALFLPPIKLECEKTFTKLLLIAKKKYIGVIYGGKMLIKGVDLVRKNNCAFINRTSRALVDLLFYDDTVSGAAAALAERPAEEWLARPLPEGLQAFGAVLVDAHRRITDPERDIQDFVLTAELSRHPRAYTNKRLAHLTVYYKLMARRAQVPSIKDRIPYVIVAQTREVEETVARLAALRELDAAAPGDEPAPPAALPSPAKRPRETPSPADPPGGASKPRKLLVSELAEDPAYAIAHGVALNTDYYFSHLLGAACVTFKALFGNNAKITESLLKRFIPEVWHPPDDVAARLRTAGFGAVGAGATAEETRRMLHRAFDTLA
T1 sequence (P08546 whole entry): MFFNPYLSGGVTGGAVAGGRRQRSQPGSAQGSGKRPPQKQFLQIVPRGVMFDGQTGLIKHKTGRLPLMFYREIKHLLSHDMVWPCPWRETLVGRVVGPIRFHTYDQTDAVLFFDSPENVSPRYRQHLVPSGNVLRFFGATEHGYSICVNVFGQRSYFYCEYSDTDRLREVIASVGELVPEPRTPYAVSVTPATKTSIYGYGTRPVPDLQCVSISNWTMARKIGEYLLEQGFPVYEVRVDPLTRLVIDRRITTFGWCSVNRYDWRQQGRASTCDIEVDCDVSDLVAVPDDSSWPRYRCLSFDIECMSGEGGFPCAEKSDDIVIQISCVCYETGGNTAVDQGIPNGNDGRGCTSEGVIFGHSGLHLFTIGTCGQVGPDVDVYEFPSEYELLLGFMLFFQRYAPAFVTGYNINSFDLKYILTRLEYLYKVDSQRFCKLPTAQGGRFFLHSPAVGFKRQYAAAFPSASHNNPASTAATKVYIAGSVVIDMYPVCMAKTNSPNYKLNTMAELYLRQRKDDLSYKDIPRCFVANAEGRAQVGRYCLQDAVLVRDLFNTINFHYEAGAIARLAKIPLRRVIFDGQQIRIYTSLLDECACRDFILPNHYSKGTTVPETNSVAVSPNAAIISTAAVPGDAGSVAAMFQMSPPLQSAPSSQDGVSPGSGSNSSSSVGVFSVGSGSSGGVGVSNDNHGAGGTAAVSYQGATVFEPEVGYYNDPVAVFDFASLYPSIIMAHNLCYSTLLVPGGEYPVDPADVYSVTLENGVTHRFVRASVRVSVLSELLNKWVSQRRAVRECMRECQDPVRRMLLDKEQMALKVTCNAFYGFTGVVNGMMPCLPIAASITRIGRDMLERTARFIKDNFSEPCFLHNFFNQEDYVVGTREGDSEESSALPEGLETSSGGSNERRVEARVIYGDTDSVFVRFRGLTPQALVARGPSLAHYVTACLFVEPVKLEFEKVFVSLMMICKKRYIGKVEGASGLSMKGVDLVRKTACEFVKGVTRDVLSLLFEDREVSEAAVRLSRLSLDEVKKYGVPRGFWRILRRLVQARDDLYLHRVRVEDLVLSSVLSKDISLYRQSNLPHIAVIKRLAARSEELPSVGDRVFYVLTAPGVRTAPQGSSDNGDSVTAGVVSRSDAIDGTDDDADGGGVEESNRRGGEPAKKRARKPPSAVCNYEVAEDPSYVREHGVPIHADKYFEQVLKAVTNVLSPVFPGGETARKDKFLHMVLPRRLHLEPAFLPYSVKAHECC
Chain of VZV Polymerase (P09252 whole entry): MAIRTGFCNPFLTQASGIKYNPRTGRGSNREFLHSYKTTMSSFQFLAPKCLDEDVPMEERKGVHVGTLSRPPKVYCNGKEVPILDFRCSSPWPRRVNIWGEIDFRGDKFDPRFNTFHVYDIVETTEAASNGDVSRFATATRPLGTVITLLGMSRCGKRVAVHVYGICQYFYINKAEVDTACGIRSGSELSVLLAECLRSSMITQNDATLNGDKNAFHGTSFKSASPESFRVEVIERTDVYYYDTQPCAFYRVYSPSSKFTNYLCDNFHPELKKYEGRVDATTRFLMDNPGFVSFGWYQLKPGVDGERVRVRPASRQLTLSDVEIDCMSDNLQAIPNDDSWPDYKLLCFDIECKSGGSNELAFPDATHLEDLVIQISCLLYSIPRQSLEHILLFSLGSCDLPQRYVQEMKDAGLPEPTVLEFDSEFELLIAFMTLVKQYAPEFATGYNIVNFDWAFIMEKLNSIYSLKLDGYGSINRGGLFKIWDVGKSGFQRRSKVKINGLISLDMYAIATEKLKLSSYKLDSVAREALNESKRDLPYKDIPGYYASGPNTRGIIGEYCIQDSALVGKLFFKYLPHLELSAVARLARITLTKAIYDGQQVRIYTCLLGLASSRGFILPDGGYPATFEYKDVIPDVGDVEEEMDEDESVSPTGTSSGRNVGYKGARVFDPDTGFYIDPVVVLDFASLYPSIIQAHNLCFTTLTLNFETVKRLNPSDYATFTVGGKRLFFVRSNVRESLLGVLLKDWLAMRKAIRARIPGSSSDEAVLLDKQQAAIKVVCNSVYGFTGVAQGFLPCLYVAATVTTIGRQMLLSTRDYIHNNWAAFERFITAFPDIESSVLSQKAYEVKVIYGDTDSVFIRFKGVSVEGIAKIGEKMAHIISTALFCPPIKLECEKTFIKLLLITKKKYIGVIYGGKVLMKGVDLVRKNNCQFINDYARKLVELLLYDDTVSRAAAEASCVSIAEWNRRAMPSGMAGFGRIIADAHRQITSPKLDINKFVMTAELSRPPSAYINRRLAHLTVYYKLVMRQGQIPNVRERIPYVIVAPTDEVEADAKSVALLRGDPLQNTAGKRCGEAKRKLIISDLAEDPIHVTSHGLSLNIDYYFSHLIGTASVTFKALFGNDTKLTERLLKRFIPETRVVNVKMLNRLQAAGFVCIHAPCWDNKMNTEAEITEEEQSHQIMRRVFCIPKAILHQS

What is called IC50 is the midpoint of a concentration-inhibition curve. A lower IC50 goes with inhibition by little substance. In general, melting point refers to the temperature of the solid-liquid transition. `O=C(NCc1ccc(Cl)cc1)c1cn2c(CCO)cc3cc(CC4CCOCC4)cc(c1=O)c32` [Example 23, N-(4-Chlorobenzyl)-2-(2-hydroxyethyl)-6-oxo-8-(tetrahydro-2H-pyran-4-ylmethyl)-6H-pyrrolo[3,2,1-ij]quinoline-5-carboxamide] had a melting point of 204 to 206 °C. Also, on CMV Polymerase, the IC50 came out at 130 nM. This compound also gave a 50% inhibitory concentration (IC50) on HSV Polymerase of 140 nM. The compound further had a 50% inhibitory concentration (IC50) against VZV Polymerase of 100 nM.
For the compound `CNCc1cc2cc(CN3CCOCC3)cc3c(=O)c(C(=O)NCc4ccc(Cl)cc4)cn1c23` [Example 20, N-(4-Chlorobenzyl)-2-[(methylamino)methyl]-8-(4-morpholinylmethyl)-6-oxo-6H-pyrrolo[3,2,1-ij]quinoline-5-carboxamide], on CMV Polymerase, half-maximal inhibition (IC50) required 490 nM.
Consider `CCSCc1cc2cc(CN3CCOCC3)cc3c(=O)c(C(=O)NCc4ccc(Cl)cc4)cn1c23` [Example 18, N-(4-Chlorobenzyl)-2-[(ethylsulfanyl)methyl]-8-(4-morpholinylmethyl)-6-oxo-6H-pyrrolo[3,2,1-ij]quinoline-5-carboxamide], for which the melting point was 177 to 178 °C. The same compound displayed a half-inhibitory concentration (IC50) at CMV Polymerase of 580 nM.
For `O=C(NCc1ccc(Cl)cc1)c1cn2c(CSc3ccccc3)cc3cc(CN4CCOCC4)cc(c1=O)c32` [Example 19, N-(4-Chlorobenzyl)-8-(4-morpholinylmethyl)-6-oxo-2-[(phenylsulfanyl)methyl]-6H-pyrrolo[3,2,1-ij]quinoline-5-carboxamide] the same measures were 173 to 175 °C and 680 nM.
For the compound `CN1CCN(CCc2cc3cc(CN4CCOCC4)cc4c(=O)c(C(=O)NCc5ccc(Cl)cc5)cn2c34)CC1` [Example 7, N-(4-Chlorobenzyl)-2-[2-(4-methylpiperazin-1-yl)ethyl]-8-(morpholin-4-ylmethyl)-6-oxo-6H-pyrrolo[3,2,1-ij]quinoline-5-carboxamide], on CMV Polymerase, the IC50 turned out to be 1760 nM.
`CN1CCN(CCCc2cc3cc(CN4CCOCC4)cc4c(=O)c(C(=O)NCc5ccc(Cl)cc5)cn2c34)CC1` [Example 9, N-(4-Chlorobenzyl)-2-[3-(4-methylpiperazin-1-yl)propyl]-8-(morpholin-4-ylmethyl)-6-oxo-6H-pyrrolo[3,2,1-ij]quinoline-5-carboxamide] had an IC50 at CMV Polymerase of 3440 nM.
For `O=C(NCc1ccc(Cl)cc1)c1cn2c(CN3CCS(=O)(=O)CC3)cc3cc(CN4CCOCC4)cc(c1=O)c32` [Example 12, N-(4-Chlorobenzyl)-2-[(1,1-dioxido-4-thiomorpholinyl)methyl]-8-(4-morpholinylmethyl)-6-oxo-6H-pyrrolo[3,2,1-ij]quinoline-5-carboxamide], the melting point fell in the range of 236 to 239 °C. Besides, the IC50 at CMV Polymerase turned out to be 360 nM.
As for `O=C(NCc1ccc(Cl)cc1)c1cn2c(CCCN3CCOCC3)cc3cc(CN4CCOCC4)cc(c1=O)c32` [Example 11, N-(4-Chlorobenzyl)-8-(morpholin-4-ylmethyl)-2-(3-morpholin-4-ylpropyl)-6-oxo-6H-pyrrolo[3,2,1-ij]quinoline-5-carboxamide], the 50% inhibitory concentration (IC50) on CMV Polymerase was found to be 3570 nM.
Same read-out and setting: with `O=C(NCc1ccc(Cl)cc1)c1cn2c(CCN3CCCCC3)cc3cc(CN4CCOCC4)cc(c1=O)c32` [Example 10, N-(4-Chlorobenzyl)-8-(morpholin-4-ylmethyl)-6-oxo-2-(2-piperidin-1-ylethyl)-6H-pyrrolo[3,2,1-ij]quinoline-5-carboxamide] the figure was 2300 nM.
With `COCc1cc2cc(CN3CCOCC3)cc3c(=O)c(C(=O)NCc4ccc(Cl)cc4)cn1c23` [Example 17, N-(4-Chlorobenzyl)-2-(methoxymethyl)-8-(4-morpholinylmethyl)-6-oxo-6H-pyrrolo[3,2,1-ij]quinoline-5-carboxamide], the melting point lay within 157 to 159 °C. Half-maximal inhibition on CMV Polymerase (IC50) required 540 nM.
For the compound `CN(C)Cc1cc2cc(CN3CCOCC3)cc3c(=O)c(C(=O)NCc4ccc(Cl)cc4)cn1c23` [Example 21, N-(4-Chlorobenzyl)-2-[(dimethylamino)methyl]-8-(4-morpholinylmethyl)-6-oxo-6H-pyrrolo[3,2,1-ij]quinoline-5-carboxamide], the 50% inhibitory concentration (IC50) at CMV Polymerase is 620 nM.
Compound `O=C(NCc1ccc(Cl)cc1)c1cn2c(CN3CCS(=O)(=O)CC3)c(I)c3cc(CN4CCOCC4)cc(c1=O)c32` [Example 13, N-(4-Chlorobenzyl)-2-[(1,1-dioxido-4-thiomorpholinyl)methyl]-1-iodo-8-(4-morpholinylmethyl)-6-oxo-6H-pyrrolo[3,2,1-ij]quinoline-5-carboxamide] returned a melting point of 244 to 246 °C. The same compound returned an IC50 on CMV Polymerase of 840 nM.
As to `CCN(CC)CCc1cc2cc(CN3CCOCC3)cc3c(=O)c(C(=O)NCc4ccc(Cl)cc4)cn1c23` [Example 6, N-(4-Chlorobenzyl)-2-[2-(diethylamino)ethyl]-8-(4-morpholinylmethyl)-6-oxo-6H-pyrrolo[3,2,1-ij]quinoline-5-carboxamide], the 50% inhibitory concentration (IC50) against CMV Polymerase came out at 2430 nM.
In the case of `O=C(NCc1ccc(Cl)cc1)c1cn2c(CO)cc3cccc(c1=O)c32` [Example 1, N-(4-Chlorobenzyl)-2-(hydroxymethyl)-6-oxo-6H-pyrrolo[3,2,1-ij]quinoline-5-carboxamide], the melting point was in the range of 211 to 213 °C. Moreover, at CMV Polymerase, the concentration for half-maximal inhibition (IC50) is 1200 nM.
As to `CCC1CCCCN1CCc1cc2cc(CN3CCOCC3)cc3c(=O)c(C(=O)NCc4ccc(Cl)cc4)cn1c23` (stereo not shown) [Example 8, N-(4-Chlorobenzyl)-2-[2-(2-ethylpiperidin-1-yl)ethyl]-8-(morpholin-4-ylmethyl)-6-oxo-6H-pyrrolo[3,2,1-ij]quinoline-5-carboxamide], at CMV Polymerase, the half-inhibitory concentration (IC50) came to 1920 nM.
The compound `O=C(NCc1ccc(Cl)cc1)c1cn2c(CCCO)cc3cc(CN4CCOCC4)cc(c1=O)c32` [Example 14, N-(4-Chlorobenzyl)-2-(3-hydroxypropyl)-8-(4-morpholinylmethyl)-6-oxo-6H-pyrrolo[3,2,1-ij]quinoline-5-carboxamide] had a melting point of 171 to 174 °C. The IC50 at CMV Polymerase came to 320 nM.
On to `O=C(NCc1ccc(Cl)cc1)c1cn2c(CO)cc3cc(CN4CCOCC4)cc(c1=O)c32` [Example 3, N-(4-Chlorobenzyl)-2-(hydroxymethyl)-8-(4-morpholinylmethyl)-6-oxo-6H-pyrrolo[3,2,1-ij]quinoline-5-carboxamide], for which the melting point fell in the range of 210 to 212 °C. The same compound displayed a 50% inhibitory concentration (IC50) against CMV Polymerase of 530 nM. The same compound returned an IC50 at HSV Polymerase of 510 nM. The compound also came in with a half-maximal inhibitory concentration (IC50) on VZV Polymerase of 250 nM.
As for `NC(=O)NCc1cc2cc(CN3CCOCC3)cc3c(=O)c(C(=O)NCc4ccc(Cl)cc4)cn1c23` [Example 15, 2-{[(Aminocarbonyl)amino]methyl}-N-(4-chlorobenzyl)-8-(4-morpholinylmethyl)-6-oxo-6H-pyrrolo[3,2,1-ij]quinoline-5-carboxamide], the melting point was in the range of 250 to 252 °C. Besides, the half-inhibitory concentration (IC50) at CMV Polymerase turned out to be 410 nM.
For `C[C@@H](O)c1cc2cc(CN3CCOCC3)cc3c(=O)c(C(=O)NCc4ccc(Cl)cc4)cn1c23` [Example 16, N-(4-Chlorobenzyl)-2-[(IR)-1-hydroxyethyl]-8-(4-morpholinylmethyl)-6-oxo-6H-pyrrolo[3,2,1-ij]quinoline-5-carboxamide] the same measures were 155 to 159 °C and 260 nM.
For `O=C(NCc1ccc(Cl)cc1)c1cn2c(CCO)cc3cccc(c1=O)c32` [Example 22, N-(4-Chlorobenzyl)-2-(2-hydroxyethyl)-6-oxo-6H-pyrrolo[3,2,1-ij]quinoline-5-carboxamide] the same measures were 190 to 192 °C and 1200 nM.
For the compound `O=C(NCc1ccc(Cl)cc1)c1cn2c(CO)cc3cc(CC4CCOCC4)cc(c1=O)c32` [Example 2, N-(4-Chlorobenzyl)-2-(hydroxymethyl)-6-oxo-8-(tetrahydro-2H-pyran-4-ylmethyl)-6H-pyrrolo[3,2,1-ij]quinoline-5-carboxamide], the melting point lay in the range of 196 to 198 °C. Also, the IC50 against CMV Polymerase stood at 210 nM. Also, 200 nM corresponded to half-maximal inhibition against HSV Polymerase (IC50). On VZV Polymerase, the 50% inhibitory concentration (IC50) worked out at 160 nM.
